Source: EPA's ToxRefDB 2

How the values were obtained:
rat [1] = conditions: Prenatal developmental toxicity study, sprague dawley, Oral, Gavage/Intubation, dose end: 20 GD
rat [2] = conditions: Multigenerational reproductive toxicity study, sprague dawley, Oral, Gavage/Intubation, dose end: 1 generation
rat [3] = conditions: Subchronic oral toxicity in rodents, sprague dawley, Gavage/Intubation, dose end: 90 day, group: systemic
rat [4] = conditions: Carcinogenicity; other; Oral; Feed; dose end: 24 month; group: systemic; systemic / pathology microscopic / [other] / [other]
mouse [5] = conditions: Prenatal developmental toxicity study, cd1, Oral, Gavage/Intubation, dose end: 15 GD
mouse [6] = conditions: Prenatal developmental toxicity study, cd1, Oral, [Not Specified], dose end: 14 GD
rat [7] = conditions: Prenatal developmental toxicity study, sprague dawley, Oral, Gavage/Intubation, dose end: 15 GD
mouse [8] = conditions: Multigenerational reproductive toxicity study, cd1, Oral, Water, dose end: 2 generation, group: offspring
[9] = group: developmental, systemic / in life observation / body weight / fetal weight
[10] = group: maternal, systemic / in life observation / body weight / body weight + systemic / in life observation / body weight / body weight gain + systemic / in…
[11] = group: offspring, systemic / in life observation / body weight / offspring (pup) weight
[12] = group: parental, systemic / in life observation / body weight / body weight gain + systemic / in life observation / clinical signs / fur (altered appearance…
[13] = systemic / clinical chemistry / peroxisomal beta-oxidation analysis / peroxisomal beta-oxidation analysis + systemic / organ weight / liver…
[14] = systemic / hematology / neutrophils / neutrophils
[15] = group: developmental, developmental / developmental malformation / bone / incomplete ossification + systemic / in life observation / body weight / fetal weight + …
[16] = group: maternal, systemic / organ weight / uterus / nos + systemic / in life observation / clinical signs / altered breathing rate + systemic / in life …
[17] = group: developmental, systemic / in life observation / body weight / offspring (pup) weight gain
[18] = group: maternal, systemic / in life observation / mortality / mortality
[19] = group: developmental, developmental / developmental malformation / bone / [other] + developmental / developmental malformation / bone / delayed ossification + …
[20] = group: maternal, systemic / in life observation / body weight / body weight + systemic / in life observation / food consumption / food consumption + systemic…
[21] = systemic / in life observation / body weight / offspring (pup) weight + systemic / organ weight / liver / relative to body weight + systemic…

O=C([O-])C(F)(F)C(F)(F)C(F)(F)C(F)(F)C(F)(F)F.[Na+] [Sodium perfluorohexanoate]
LEL (rat [1]; [9]): 500 mg/kg/day | LOAEL (rat [1]; [9]): > 500 mg/kg/day | NEL (rat [1]; [9]): 100 mg/kg/day | NOAEL (rat [1]; [9]): ≥ 500 mg/kg/day | LEL (rat [1]; [10]): 500 mg/kg/day | LOAEL (rat [1]; [10]): > 500 mg/kg/day | NEL (rat [1]; [10]): 100 mg/kg/day | NOAEL (rat [1]; [10]): ≥ 500 mg/kg/day | LEL (rat [2]; [11]): 500 mg/kg/day | LOAEL (rat [2]; [11]): > 500 mg/kg/day | NEL (rat [2]; [11]): 100 mg/kg/day | NOAEL (rat [2]; [11]): ≥ 500 mg/kg/day | LEL (rat [2]; group: parental, systemic / in life observation / body weight / body weight gain): 100 mg/kg/day | LOAEL (rat [2]; [12]): > 500 mg/kg/day | NEL (rat [2]; [12]): 20 mg/kg/day | NOAEL (rat [2]; [12]): ≥ 500 mg/kg/day | LOAEL (rat [3]; [13]): > 500 mg/kg/day | NOAEL (rat [3]; [13]): ≥ 500 mg/kg/day | LEL (rat [3]; [14]): 20 mg/kg/day | NEL (rat [3]; [14]): < 20 mg/kg/day

OCCOCCOCCO [Triethylene glycol]
LEL (rat [4]): 4 mg/kg/day | LOAEL (rat [4]): > 4 mg/kg/day | NEL (rat [4]): < 4 mg/kg/day | NOAEL (rat [4]): ≥ 4 mg/kg/day | LEL (mouse [5]; group: developmental, developmental / developmental malformation / bone / incomplete ossification + systemic / in life observation / body weight / fetal weight): 5630 mg/kg/day | LOAEL (mouse [5]; [15]): > 11300 mg/kg/day | NEL (mouse [5]; [15]): 563 mg/kg/day | NOAEL (mouse [5]; [15]): ≥ 11300 mg/kg/day | LEL (mouse [5]; group: maternal, systemic / organ weight / uterus / nos): 5630 mg/kg/day | LOAEL (mouse [5]; [16]): > 11300 mg/kg/day | NEL (mouse [5]; [16]): 563 mg/kg/day | NOAEL (mouse [5]; [16]): ≥ 11300 mg/kg/day | LEL (mouse [6]; [17]): 11300 mg/kg/day | LOAEL (mouse [6]; [17]): 11300 mg/kg/day | NEL (mouse [6]; [17]): 4500 mg/kg/day | NOAEL (mouse [6]; [17]): 4500 mg/kg/day | LEL (mouse [6]; [18]): 11300 mg/kg/day | LOAEL (mouse [6]; [18]): 11300 mg/kg/day | NEL (mouse [6]; [18]): 4500 mg/kg/day | NOAEL (mouse [6]; [18]): 4500 mg/kg/day | LEL (rat [7]; [19]): 11300 mg/kg/day | LOAEL (rat [7]; [19]): > 11300 mg/kg/day | NEL (rat [7]; [19]): 5630 mg/kg/day | NOAEL (rat [7]; [19]): ≥ 11300 mg/kg/day | LEL (rat [7]; [20]): 5630 mg/kg/day | LOAEL (rat [7]; [20]): > 11300 mg/kg/day | NEL (rat [7]; [20]): 1130 mg/kg/day | NOAEL (rat [7]; [20]): ≥ 11300 mg/kg/day | LEL (mouse [8]; systemic / in life observation / body weight / offspring (pup) weight): 2000 mg/kg/day | NEL (mouse [8]; systemic / in life observation / body weight / offspring (pup) weight + systemic / organ weight / liver / relative to body weight): 400 mg/kg/day | LOAEL (mouse [8]; [21]): > 4000 mg/kg/day | NOAEL (mouse [8]; [21]): ≥ 4000 mg/kg/day
